Two substances from patent US5538945A, “Stimulation of hair growth by peptide copper complexes” (ProCyte Corporation, priority 1994, dated 1996) can be followed below.

Holding throughout (assay type): in vivo
Assay [1] has as its system telogen cycle female C3H mice. In words: Stimulation of hair growth by topical application of a peptide-copper complex (Example 14). The method, then:
This example illustrates the stimulation of hair growth in warm-blooded animals by topical application of a peptide-copper complex. In this experiment, telogen cycle female C3H mice (60-65 days old) were prepared by clipping their posterior dorsal region (i.e., day 1). Topical application of peptide-copper complexes was performed twice per day (Monday-Friday) using a cotton-tipped applicator which delivered approximately 0.1 ml per treatment. The topical formulation used in this experiment contained the following components:
Topical application of the above formulation continued until the onset of follicle pigmentation, which proceeds the emergence of the hair shall. Measurement of the degree of response was performed using digital image analysis at weekly intervals, beginning at day 14. Data was expressed as the percent treatment area response using the following equation:
% treatment area=(growth area/treatment area)×100
For comparison purposes to illustrate the effect of hydrophobic amino acid residues on hair growth after topical application, AHK:Cu was compared to AHF:Cu. In this experiment, topical formulations containing AHK:Cu (1.1:1) and AHF:Cu (1.1:1) were prepared at a concentration of 0.5% and 0.1% (w/w) as indicated above. Hair growth response (i.e., "Percent Treatment Area") was determined at day 20, day 27 and at day 34.

Assay [2] deals with C3H mice (telogen hair growth phase). In words: Stimulation of hair growth after intradermal injection of peptide-copper complexes (Example 12). The conditions noted are these: peptide to copper 2:1, day 21; for Number of Animals Growing Hair: responders/injected mice. The method, then: The following example illustrates the stimulation of hair growth in warm-blooded animals after intradermal injection of representative peptide-copper complexes of this invention.
As in Example 11 above, the backs of C3H mice (60 days old, telogen hair growth phase) were closely clipped on day 1 using an electric clipper. A sterile saline solution containing the indicated peptide-copper complex was then injected intradermally (i.e., infiltrated under the skin) at two locations within the clipped areas of the mice. Injection at two locations provided two test locations within the clipped area of each mouse. Each injection (0.1 ml) contained between 0.75 to 1.5 mg of the peptide-copper complex within the sterile saline solution. A group of saline injected mice (0.1 ml) served as controls. Following injection of the peptide-copper complexes, indications of hair growth were seen within 10 days. The first visual signs were a darkening of the skin in a circular region surrounding the injection site. The size of this region is generally dose dependent, increasing with an increase in dose. The 0.1 ml injections used in this experiment produced a circle of hair growth measuring approximately 0.5 cm^2 to 5 cm^2 in diameter. Active hair growth occurred between 14-20 days following injection, with a maximum effect seen by day 29. Both the number of mice growing hair at the injection site and the diameter of the hair growth region were determined at day 21.

Assay [3] has the same test system. Kind of assay: Stimulation of hair growth by intradermal injection of peptide-copper complexes containing D-amino acids (Example 13). The conditions noted are these: peptide to copper 1.1:1. The method, then: This example illustrates the stimulation of hair growth in warm-blooded animals by intradermal injection of AHK:Cu (1.1:1) utilizing a D-amino acids inplace of the naturally occurring L-amino acid.
In this experiment, the backs of C3H mice (60 days old, telogen hair growth phase) were closely clipped on day 1 using an electric clipper. A sterile saline solution containing AHK:Cu (1.1:1), or AHK:Cu (1.1:1) containing a D-amino acid, was then injected intradermally (i.e., infiltrated under the skin) at two locations within the clipped areas of the mice. Injection at two locations provided two test locations within the clipped area of each mouse. Each injection (0.1 ml) contained either 1.2 or 1.8 μmoles per injection of peptide-copper complex in the sterile saline solution. A group of saline injected mice (0.1 ml) served as controls. Following injection of peptide copper complex, indications of hair growth were seen within 10 days. The first visual signs were a darkening of the skin in a circular region surrounding the injection site. The size of this region is generally dose dependent, increasing with an increase in dose. The 0.1 ml injections used in this experiment produced a circle of hair growth measuring approximately 0.5 cm^2 to 5 cm^2 in diameter. […]
The degree of hair growth was determined by measuring the total area of hair growth at the two injection sites.

Assay [4] concerns Sprague-Dawley rat pups treated with cytosine arabinoside (Ara-C). Kind of assay: Localized maintenance of hair follicle viability by intradermal injection during Ara-C chemotherapy (Example 16). The conditions noted are these: for Degree of Alopecia (mean) at the site of injection: day 10, grade 0 normal to 4 total loss of hair. An excerpt: The following experiment illustrates the localized maintenance of hair follicle viability (i.e., growth) by intradermal (local) injection of the peptide-copper complex AHK:Cu during treatment with the chemotherapeutic agent cytosine arabinoside (Ara-C).
In this experiment, Sprague-Dawley rat pups (age 8 days) were maintained in 5 litters (n=10-11/litter) for the duration of this study. On day 0, litters received intradermal (ID) injections of AHK:Cu (1:1) in a sterile saline solution, or a saline control (1 injection per animal, 0.05 ml per injection). Each litter contained 2 normal control animals where no AHK:Cu or Ara-C was administered (i.e., saline only). On day 1, designated animals began a series of 7 consecutive daily intraperitoneal (IP) injections with Ara-C (25 mg/kg). On day 10, all animals were evaluated for the extent of hairloss (alopecia) at the injection sites using the rating identified in Example 15.
Ara-C injections caused significant hair loss by day 5-6 in most animals. In order to evaluate the stimulatory effect of AHK:Cu, the degree of hairloss was evaluated at the injection site daily. […] Table 9 presents the results as evaluated on day 10 using the previously described rating scale, with the "Degree of Alopecia" being expressed as the average response seen at the site of injection.

[5] abbreviates: topical 0.1% w/w twice per day, peptide to copper 1.1:1, day 20.
[6] abbreviates: topical 0.1% w/w twice per day, peptide to copper 1.1:1, day 27.
[7] abbreviates: topical 0.1% w/w twice per day, peptide to copper 1.1:1, day 34.
Setting [8] is: topical 0.5% w/w twice per day, peptide to copper 1.1:1, day 20.
Setting [9] is: topical 0.5% w/w twice per day, peptide to copper 1.1:1, day 27.
[10] abbreviates: topical 0.5% w/w twice per day, peptide to copper 1.1:1, day 34.

For the substance “alanyl-histidyl-phenylalanine:copper [AHF:Cu]”, the “Percent Treatment Area (growth area/treatment area x 100)” value in assay [1] (setting [5]) came out at 0.00%; in assay [1] (setting [6]), 0.00%; in assay [1] (setting [7]) it was 12.91 ± 12.91%; in assay [1] (setting [8]), 55.05 ± 17.44%; in assay [1] (setting [9]) it was 100%; in assay [1] (setting [10]) it was 100%.

On to alanyl-histidyl-lysine:copper [AHK:Cu], for which the “Relative hair growth activity after topical administration” value in assay [1] (AHK:Cu compared to AHF:Cu, topical) was “more active in stimulating hair growth”. For the same substance, the “Percent Treatment Area (growth area/treatment area x 100)” value in assay [1] (setting [5]) is reported as 1.29 ± 1.29%; in assay [1] (setting [6]), 23.07 ± 18.84%; in assay [1] (setting [7]) it was 90.14 ± 2.96%; in assay [1] (setting [8]), 75.87 ± 7.64%; in assay [1] (setting [9]) it was 100%; in assay [1] (setting [10]) it was 100%. Besides, the “Area of Hair Growth” value was less than 1 cm diameter in assay [2] (0.75 mg/injection intradermal) and greater than 1 cm diameter in assay [2] (1.50 mg/injection intradermal). Moreover, the entries for the “Number of Animals Growing Hair” value in assay [2] (0.75 mg/injection intradermal) and in assay [2] (1.50 mg/injection intradermal) were 1/4 and 4/4, respectively. The results for the “Area of Hair Growth (total area at the two injection sites)” value in assay [3] (1.2 μmoles per injection intradermal) and in assay [3] (1.8 μmoles per injection intradermal) were 3.07 ± 0.76 and 3.24 ± 1.17, respectively. For the same substance, the “Degree of Alopecia (mean) at the site of injection” value in assay [4] (0.05 mg per injection, 3.5 mg/kg intradermal day 0, peptide to copper 1:1, Ara-C 25 mg/kg IP x 7 days) was 3.25; in assay [4] (0.10 mg per injection, 7.0 mg/kg intradermal day 0, peptide to copper 1:1, Ara-C 25 mg/kg IP x 7 days), 2.38; in assay [4] (0.25 mg per injection, 17.5 mg/kg intradermal day 0, peptide to copper 1:1, Ara-C 25 mg/kg IP x 7 days), 1.44; in assay [4] (0.50 mg per injection, 35.0 mg/kg intradermal day 0, peptide to copper 1:1, Ara-C 25 mg/kg IP x 7 days) it was 1.11. Further, the “Histology of hair follicles at the injection site” value in assay [4] (intradermal, with Ara-C, follicles away from the injection dystrophic and non-functional) was “normal appearing and functioning anagen hair follicles”. For the same substance, the “Radius of retention of hair around the injection site” value in assay [4] (intradermal, with Ara-C, most notably in the 0.1 to 0.5 mg dose groups) is on record as 0.25 cm.
